Measurements published in ChEMBL document CHEMBL1201862, “PubChem BioAssay data set” (2004).
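Tested at 5 concentrations; 48 h exposure; 96-well plates; endpoints linearly interpolated, else capped at highest concentration. GI50 = concentration required for 50% inhibition of growth.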 Activity calls are given as the source filed them. Cut-off read from the data, not from the text of the source: active = GI50 up to about 1.1 µM and inactive = higher.

Legend:
Assay in all cases: growth of human tumour cells (NCI), 48 h
HCC 2998 = tested on: HCC 2998
SK-MEL-5 = tested on: SK-MEL-5
HCT-15 = tested on: HCT-15
M14 = tested on: M14
BT-549 = tested on: BT-549
OVCAR-5 = tested on: OVCAR-5
ACHN = tested on: ACHN
K562 = tested on: K562
HOP-92 = tested on: HOP-92
COLO 205 = tested on: COLO 205
SNB-19 = tested on: SNB-19
Hs-578T = tested on: Hs-578T
OVCAR-8 = tested on: OVCAR-8
SR = tested on: SR
LOX IMVI = tested on: LOX IMVI
SK-MEL-28 = tested on: SK-MEL-28
UACC-62 = tested on: UACC-62
NCI-H460 = tested on: NCI-H460
CAKI-1 = tested on: CAKI-1
786-0 = tested on: 786-0
SF-268 = tested on: SF-268
SNB-75 = tested on: SNB-75
SK-OV-3 = tested on: SK-OV-3
SK-MEL-2 = tested on: SK-MEL-2
KM12 = tested on: KM12
OVCAR-4 = tested on: OVCAR-4
PC-3 = tested on: PC-3
U-251 = tested on: U-251
MOLT-4 = tested on: MOLT-4
CCRF-CEM = tested on: CCRF-CEM
DU-145 = tested on: DU-145
HT-29 = tested on: HT-29
MDA-MB-231 = tested on: MDA-MB-231
RXF 393 = tested on: RXF 393
MDA-N = tested on: MDA-N
OVCAR-3 = tested on: OVCAR-3
NCI-H226 = tested on: NCI-H226
SW-620 = tested on: SW-620
NCI-H23 = tested on: NCI-H23
A549 = tested on: A549
UACC-257 = tested on: UACC-257
IGROV-1 = tested on: IGROV-1
HL-60 = tested on: HL-60
HOP-62 = tested on: HOP-62
MDA-MB-435 = tested on: MDA-MB-435
HCT-116 = tested on: HCT-116
SN12C = tested on: SN12C
NCI/ADR-RES = tested on: NCI/ADR-RES
RPMI-8226 = tested on: RPMI-8226
T47D = tested on: T47D
A498 = tested on: A498
Malme-3M = tested on: Malme-3M
EKVX = tested on: EKVX
MCF7 = tested on: MCF7
NCI-H522 = tested on: NCI-H522
SF-539 = tested on: SF-539
TK-10 = tested on: TK-10
SF-295 = tested on: SF-295
UO-31 = tested on: UO-31

With `CCOC(=O)N1[C@@H]2CCC[C@@H]2C(=O)[C@@H]2CCC[C@@H]21` the GI50 (HCC 2998) was > 100 µM (inactive), the GI50 (SK-MEL-5) was > 100 µM (inactive) and the GI50 (HCT-15) was over 100 µM. For the same compound, the GI50 (M14) was > 100 µM (inactive), the GI50 (BT-549) was > 100 µM (inactive) and the GI50 (OVCAR-5) was > 100 µM (inactive). For the same compound, the GI50 (ACHN) was > 100 µM (inactive), the GI50 (K562) was > 100 µM (inactive) and the GI50 (HOP-92) was > 100 µM (inactive). The GI50 (COLO 205) was > 100 µM (inactive), the GI50 (SNB-19) was > 100 µM (inactive) and the GI50 (Hs-578T) was > 100 µM (inactive). For the same compound, the GI50 (OVCAR-8) was > 100 µM (inactive), the GI50 (SR) was > 100 µM (inactive) and the GI50 (LOX IMVI) was > 100 µM (inactive). For the same compound, the GI50 (SK-MEL-28) was > 100 µM (inactive), the GI50 (UACC-62) was > 100 µM (inactive) and the GI50 (NCI-H460) was > 100 µM (inactive). For the same compound, the GI50 (CAKI-1) was > 100 µM (inactive), the GI50 (786-0) was > 100 µM (inactive) and the GI50 (SF-268) was > 100 µM (inactive). The GI50 (SNB-75) was > 100 µM (inactive), the GI50 (SK-OV-3) was > 100 µM (inactive) and the GI50 (SK-MEL-2) was > 100 µM (inactive). For the same compound, the GI50 (KM12) was > 100 µM (inactive), the GI50 (OVCAR-4) was > 100 µM (inactive) and the GI50 (PC-3) was > 100 µM (inactive). For the same compound, the GI50 (U-251) was > 100 µM (inactive), the GI50 (MOLT-4) was > 100 µM (inactive) and the GI50 (CCRF-CEM) was > 100 µM (inactive). The GI50 (DU-145) was > 100 µM (inactive), the GI50 (HT-29) was > 100 µM (inactive) and the GI50 (MDA-MB-231) was > 100 µM (inactive). For the same compound, the GI50 (RXF 393) was > 100 µM (inactive), the GI50 (MDA-N) was > 100 µM (inactive) and the GI50 (OVCAR-3) was > 100 µM (inactive). The GI50 (NCI-H226) was > 100 µM (inactive), the GI50 (SW-620) was > 100 µM (inactive) and the GI50 (NCI-H23) was > 100 µM (inactive). The GI50 (A549) was > 100 µM (inactive), the GI50 (UACC-257) was > 100 µM (inactive) and the GI50 (IGROV-1) was > 100 µM (inactive). The GI50 (HL-60) was > 100 µM (inactive), the GI50 (HOP-62) was > 100 µM (inactive) and the GI50 (MDA-MB-435) was > 100 µM (inactive). The GI50 (HCT-116) was > 100 µM (inactive), the GI50 (SN12C) was > 100 µM (inactive) and the GI50 (NCI/ADR-RES) was > 100 µM (inactive). The GI50 (RPMI-8226) was > 100 µM (inactive), the GI50 (T47D) was > 100 µM (inactive) and the GI50 (A498) was > 100 µM (inactive).
In the case of `C=C1C(=O)OC2C3C(=C)[C@@H](OC(C)=O)CC3C(C)=CC(OC(=O)C(C)(O)C(C)OC(C)=O)[C@@H]12` (stereo not given in full), the GI50 (HCC 2998) is reported as 16.1 µM (inactive), the GI50 (SK-MEL-5) is reported as 7.4 µM (inactive) and the GI50 (HCT-15) is reported as 10.4 µM. For the same compound, the GI50 (M14) was 7.6 µM (inactive), the GI50 (BT-549) was 13.6 µM (inactive) and the GI50 (OVCAR-5) was 11.9 µM (inactive). The GI50 (ACHN) was 10.4 µM (inactive), the GI50 (K562) was 3.35 µM (inactive) and the GI50 (COLO 205) was 4.15 µM (inactive). The GI50 (SNB-19) was 85.5 µM (inactive), the GI50 (Hs-578T) was 12.8 µM (inactive) and the GI50 (OVCAR-8) was 20.1 µM (inactive). The GI50 (SR) was 7.41 µM (inactive), the GI50 (LOX IMVI) was 4.89 µM (inactive) and the GI50 (Malme-3M) was 6.7 µM (inactive). For the same compound, the GI50 (SK-MEL-28) was 14 µM (inactive), the GI50 (UACC-62) was 10.6 µM (inactive) and the GI50 (NCI-H460) was 17.6 µM (inactive). The GI50 (EKVX) was 16.1 µM (inactive), the GI50 (CAKI-1) was 2.9 µM (inactive) and the GI50 (786-0) was 11.5 µM (inactive). The GI50 (SF-268) was 19.5 µM (inactive), the GI50 (SNB-75) was 13.7 µM (inactive) and the GI50 (SK-OV-3) was 80.9 µM (inactive). For the same compound, the GI50 (SK-MEL-2) was 4.98 µM (inactive), the GI50 (MCF7) was 10.7 µM (inactive) and the GI50 (KM12) was 15.2 µM (inactive). The GI50 (OVCAR-4) was 7.28 µM (inactive), the GI50 (NCI-H522) was 1.52 µM (inactive) and the GI50 (PC-3) was 16.3 µM (inactive). For the same compound, the GI50 (U-251) was 16.8 µM (inactive), the GI50 (MOLT-4) was 3.04 µM (inactive) and the GI50 (CCRF-CEM) was 2.84 µM (inactive). For the same compound, the GI50 (DU-145) was 16.2 µM (inactive), the GI50 (SF-539) was 13.8 µM (inactive) and the GI50 (HT-29) was 5.09 µM (inactive). The GI50 (MDA-MB-231) was 19.8 µM (inactive), the GI50 (RXF 393) was 3.61 µM (inactive) and the GI50 (MDA-N) was 5.82 µM (inactive). For the same compound, the GI50 (OVCAR-3) was 9.82 µM (inactive), the GI50 (NCI-H226) was 21.6 µM (inactive) and the GI50 (SW-620) was 2.88 µM (inactive). For the same compound, the GI50 (NCI-H23) was 13.2 µM (inactive), the GI50 (A549) was 26.2 µM (inactive) and the GI50 (UACC-257) was 9.46 µM (inactive). The GI50 (TK-10) was 3.99 µM (inactive), the GI50 (IGROV-1) was 7.36 µM (inactive) and the GI50 (HL-60) was 2.55 µM (inactive). The GI50 (HOP-62) was 21.3 µM (inactive), the GI50 (SF-295) was 48.2 µM (inactive) and the GI50 (UO-31) was 12.4 µM (inactive). The GI50 (MDA-MB-435) was 8.93 µM (inactive), the GI50 (HCT-116) was 5.02 µM (inactive) and the GI50 (SN12C) was 14.7 µM (inactive). The GI50 (RPMI-8226) was 7.18 µM (inactive), the GI50 (T47D) was 19.5 µM (inactive) and the GI50 (A498) was 16.7 µM (inactive).
With `O=c1ccc2nc3ccc(O)cc3oc-2c1` the GI50 (HCC 2998) was 25.6 µM (inactive), the GI50 (SK-MEL-5) was 1.6 µM (inactive) and the GI50 (HCT-15) was 13.5 µM. For the same compound, the GI50 (M14) was 4.3 µM (inactive), the GI50 (BT-549) was 7.24 µM (inactive) and the GI50 (OVCAR-5) was > 100 µM (inactive). The GI50 (ACHN) was 8.11 µM (inactive), the GI50 (K562) was 6.1 µM (inactive) and the GI50 (HOP-92) was > 100 µM (inactive). The GI50 (COLO 205) was 6.25 µM (inactive), the GI50 (SNB-19) was 38.6 µM (inactive) and the GI50 (Hs-578T) was 6.92 µM (inactive). The GI50 (OVCAR-8) was 16.4 µM (inactive), the GI50 (LOX IMVI) was 2.75 µM (inactive) and the GI50 (Malme-3M) was 2.72 µM (inactive). For the same compound, the GI50 (UACC-62) was 2.7 µM (inactive), the GI50 (NCI-H460) was 12 µM (inactive) and the GI50 (EKVX) was > 100 µM (inactive). The GI50 (CAKI-1) was > 67.9 µM (inactive), the GI50 (786-0) was 13.4 µM (inactive) and the GI50 (SF-268) was 28.8 µM (inactive). The GI50 (SNB-75) was 6.78 µM (inactive), the GI50 (SK-OV-3) was > 100 µM (inactive) and the GI50 (SK-MEL-2) was 12.8 µM (inactive). For the same compound, the GI50 (MCF7) was 5.07 µM (inactive), the GI50 (KM12) was 5.6 µM (inactive) and the GI50 (OVCAR-4) was > 68.1 µM (inactive). The GI50 (NCI-H522) was 5.32 µM (inactive), the GI50 (PC-3) was 4.69 µM (inactive) and the GI50 (U-251) was 26.8 µM (inactive). The GI50 (MOLT-4) was 34 µM (inactive), the GI50 (CCRF-CEM) was 34 µM (inactive) and the GI50 (DU-145) was 21 µM (inactive). For the same compound, the GI50 (SF-539) was 4.7 µM (inactive), the GI50 (HT-29) was 24 µM (inactive) and the GI50 (MDA-MB-231) was > 100 µM (inactive). The GI50 (RXF 393) was > 100 µM (inactive), the GI50 (MDA-N) was 1.91 µM (inactive) and the GI50 (OVCAR-3) was 10.5 µM (inactive). The GI50 (NCI-H226) was 27.8 µM (inactive), the GI50 (SW-620) was 13.2 µM (inactive) and the GI50 (NCI-H23) was 3.56 µM (inactive). The GI50 (A549) was 4.27 µM (inactive), the GI50 (UACC-257) was 8.69 µM (inactive) and the GI50 (TK-10) was > 72.1 µM (inactive). The GI50 (IGROV-1) was 39.5 µM (inactive), the GI50 (HL-60) was 10.5 µM (inactive) and the GI50 (HOP-62) was 17 µM (inactive). For the same compound, the GI50 (SF-295) was 8.49 µM (inactive), the GI50 (UO-31) was 5.75 µM (inactive) and the GI50 (MDA-MB-435) was 1.83 µM (inactive). For the same compound, the GI50 (HCT-116) was 16.4 µM (inactive), the GI50 (SN12C) was > 100 µM (inactive) and the GI50 (NCI/ADR-RES) was 19.5 µM (inactive). The GI50 (RPMI-8226) was 3.3 µM (inactive), the GI50 (T47D) was > 100 µM (inactive) and the GI50 (A498) was 35.2 µM (inactive).
